{"source": "ChEMBL document CHEMBL1142534", "about": "“Design, synthesis, biological evaluation and pharmacokinetics of bis(hydroxyphenyl) substituted azoles, thiophenes, benzenes, and aza-benzenes as potent and selective nonsteroidal inhibitors of 17beta-hydroxysteroid dehydrogenase type 1 (17beta-HSD1)” (J Med Chem, 2008)", "key": {"[1]": {"biological_target": "T1, 17-beta-hydroxysteroid dehydrogenase type 1 (Homo sapiens, UniProt P14061)", "T1 sequence (P14061 whole entry)": "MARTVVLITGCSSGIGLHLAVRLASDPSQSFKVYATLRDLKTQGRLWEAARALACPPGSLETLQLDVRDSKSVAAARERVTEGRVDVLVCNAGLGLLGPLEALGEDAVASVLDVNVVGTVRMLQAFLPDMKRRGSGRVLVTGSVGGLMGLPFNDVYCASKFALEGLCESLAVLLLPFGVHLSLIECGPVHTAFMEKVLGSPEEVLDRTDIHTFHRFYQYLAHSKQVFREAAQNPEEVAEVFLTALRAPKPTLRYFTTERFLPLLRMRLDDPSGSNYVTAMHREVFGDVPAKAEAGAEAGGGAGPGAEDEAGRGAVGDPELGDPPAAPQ", "test": "(§1) Inhibition of human placental cytosolic 17beta-HSD1"}, "[2]": {"biological_target": "T2, Estrogen receptor (Homo sapiens) (UniProt P03372)", "T2 sequence (whole entry)": "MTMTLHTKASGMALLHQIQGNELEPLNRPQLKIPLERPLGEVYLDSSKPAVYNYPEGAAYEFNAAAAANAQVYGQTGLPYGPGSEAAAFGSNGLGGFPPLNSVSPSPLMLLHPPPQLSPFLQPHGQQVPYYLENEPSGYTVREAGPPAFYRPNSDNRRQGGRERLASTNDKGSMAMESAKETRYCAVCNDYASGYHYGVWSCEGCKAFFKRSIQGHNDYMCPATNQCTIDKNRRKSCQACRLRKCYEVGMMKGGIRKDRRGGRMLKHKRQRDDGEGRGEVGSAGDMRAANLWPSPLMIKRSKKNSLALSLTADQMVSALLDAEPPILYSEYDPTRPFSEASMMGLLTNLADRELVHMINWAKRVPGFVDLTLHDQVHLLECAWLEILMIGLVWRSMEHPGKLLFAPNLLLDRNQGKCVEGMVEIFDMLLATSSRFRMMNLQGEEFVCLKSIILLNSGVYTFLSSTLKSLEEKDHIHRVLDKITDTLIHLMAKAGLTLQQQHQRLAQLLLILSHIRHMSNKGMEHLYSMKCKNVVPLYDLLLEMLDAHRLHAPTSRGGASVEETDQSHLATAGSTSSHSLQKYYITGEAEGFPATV", "test": "Displacement of [2,4,6,7-3H]17beta-estradiol from human recombinant ERalpha receptor relative to 17-beta-estradiol"}, "[3]": {"biological_target": "Estrogen receptor beta (Homo sapiens) (UniProt Q92731)", "sequence (Q92731 whole entry)": "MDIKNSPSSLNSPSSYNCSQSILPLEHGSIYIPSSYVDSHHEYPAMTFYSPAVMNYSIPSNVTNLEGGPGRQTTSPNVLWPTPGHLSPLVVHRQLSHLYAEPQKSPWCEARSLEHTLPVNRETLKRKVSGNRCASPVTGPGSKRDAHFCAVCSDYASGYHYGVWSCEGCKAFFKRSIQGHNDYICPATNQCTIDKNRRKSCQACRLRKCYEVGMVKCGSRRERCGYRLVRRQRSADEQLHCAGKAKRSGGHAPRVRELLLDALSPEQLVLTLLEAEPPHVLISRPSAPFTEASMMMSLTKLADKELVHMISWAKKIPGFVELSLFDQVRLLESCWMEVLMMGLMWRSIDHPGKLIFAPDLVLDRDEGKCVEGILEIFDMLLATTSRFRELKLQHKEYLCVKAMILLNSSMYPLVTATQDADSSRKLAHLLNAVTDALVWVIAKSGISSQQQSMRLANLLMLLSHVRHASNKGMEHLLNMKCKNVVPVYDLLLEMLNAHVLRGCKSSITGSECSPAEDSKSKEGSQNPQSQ", "test": "Displacement of [2,4,6,7-3H]17beta-estradiol from human recombinant ERbeta receptor relative to 17-beta-estradiol"}, "[4]": {"test_system": "T47D", "test": "Estrogenic activity in human ER expressing T47D cells assessed as stimulation of cell proliferation at 100 nM by MTT assay", "assay_type": "functional, cell-based"}, "[5]": {"biological_target": "T3, Cytochrome P450 1A2 (Homo sapiens, UniProt P05177)", "T3 sequence (P05177 whole entry)": "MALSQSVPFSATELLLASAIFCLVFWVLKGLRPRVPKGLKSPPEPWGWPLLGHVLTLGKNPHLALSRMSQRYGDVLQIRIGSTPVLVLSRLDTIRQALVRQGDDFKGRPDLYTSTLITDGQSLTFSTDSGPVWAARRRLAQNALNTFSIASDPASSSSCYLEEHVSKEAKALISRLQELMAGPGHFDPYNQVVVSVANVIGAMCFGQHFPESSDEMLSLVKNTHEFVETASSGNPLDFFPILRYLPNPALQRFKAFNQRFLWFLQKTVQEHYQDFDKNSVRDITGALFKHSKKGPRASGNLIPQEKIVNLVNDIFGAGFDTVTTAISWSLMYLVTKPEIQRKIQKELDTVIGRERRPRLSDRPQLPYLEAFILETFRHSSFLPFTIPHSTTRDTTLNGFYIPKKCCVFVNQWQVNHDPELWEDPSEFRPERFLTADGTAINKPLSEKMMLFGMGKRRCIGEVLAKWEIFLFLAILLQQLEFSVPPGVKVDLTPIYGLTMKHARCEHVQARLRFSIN", "test": "Inhibition of human hepatic CYP1A2", "assay_type": "ADME"}, "[6]": {"biological_target": "T4, Cytochrome P450 2B6 (Homo sapiens, UniProt P20813)", "T4 sequence (P20813 whole entry)": "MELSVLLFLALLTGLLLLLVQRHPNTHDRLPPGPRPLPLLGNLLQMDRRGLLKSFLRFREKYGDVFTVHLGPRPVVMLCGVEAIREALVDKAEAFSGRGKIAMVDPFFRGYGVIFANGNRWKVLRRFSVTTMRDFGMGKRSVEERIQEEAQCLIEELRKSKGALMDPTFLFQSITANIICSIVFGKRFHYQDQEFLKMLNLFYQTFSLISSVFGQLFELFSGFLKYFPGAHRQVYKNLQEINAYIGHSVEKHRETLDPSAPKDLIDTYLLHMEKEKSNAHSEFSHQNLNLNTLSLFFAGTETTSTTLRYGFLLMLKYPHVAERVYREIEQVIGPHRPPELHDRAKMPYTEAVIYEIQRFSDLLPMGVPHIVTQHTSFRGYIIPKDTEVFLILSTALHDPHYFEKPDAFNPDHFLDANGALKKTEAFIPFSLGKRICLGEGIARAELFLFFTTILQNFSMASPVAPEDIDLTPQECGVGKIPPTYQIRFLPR", "test": "Inhibition of human hepatic CYP2B6", "assay_type": "ADME"}, "[7]": {"biological_target": "Cytochrome P450 2C19 (Homo sapiens, UniProt P33261)", "sequence (P33261 whole entry)": "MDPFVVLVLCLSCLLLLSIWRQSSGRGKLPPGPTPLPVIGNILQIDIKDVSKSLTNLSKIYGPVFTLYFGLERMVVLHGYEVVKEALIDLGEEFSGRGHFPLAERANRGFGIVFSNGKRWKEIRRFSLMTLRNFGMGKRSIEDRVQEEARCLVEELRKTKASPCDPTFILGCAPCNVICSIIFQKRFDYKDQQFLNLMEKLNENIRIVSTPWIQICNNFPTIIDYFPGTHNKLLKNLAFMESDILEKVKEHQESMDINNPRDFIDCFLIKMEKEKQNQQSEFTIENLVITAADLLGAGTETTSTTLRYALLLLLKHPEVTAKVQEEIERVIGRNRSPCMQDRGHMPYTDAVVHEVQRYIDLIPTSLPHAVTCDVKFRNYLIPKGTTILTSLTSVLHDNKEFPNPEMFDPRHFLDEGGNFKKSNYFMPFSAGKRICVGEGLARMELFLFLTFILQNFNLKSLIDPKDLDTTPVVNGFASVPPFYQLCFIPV", "test": "Inhibition of human hepatic CYP2C19", "assay_type": "ADME"}, "[8]": {"biological_target": "Cytochrome P450 2D6 (Homo sapiens, UniProt P10635)", "sequence (P10635 whole entry)": "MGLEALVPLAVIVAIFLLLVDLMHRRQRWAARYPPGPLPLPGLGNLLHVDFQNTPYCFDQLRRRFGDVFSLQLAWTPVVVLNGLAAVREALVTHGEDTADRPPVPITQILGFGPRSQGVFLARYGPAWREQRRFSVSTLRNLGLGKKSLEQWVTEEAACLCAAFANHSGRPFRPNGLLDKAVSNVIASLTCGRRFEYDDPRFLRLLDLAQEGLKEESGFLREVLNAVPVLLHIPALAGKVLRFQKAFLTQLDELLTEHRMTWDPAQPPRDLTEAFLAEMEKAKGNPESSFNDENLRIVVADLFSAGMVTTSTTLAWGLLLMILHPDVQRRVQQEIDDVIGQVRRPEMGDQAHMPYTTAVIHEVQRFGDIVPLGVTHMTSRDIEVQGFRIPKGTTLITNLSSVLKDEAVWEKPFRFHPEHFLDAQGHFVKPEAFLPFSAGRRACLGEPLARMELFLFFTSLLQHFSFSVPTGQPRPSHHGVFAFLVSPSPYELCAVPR", "test": "Inhibition of human hepatic CYP2D6", "assay_type": "ADME"}, "[9]": {"biological_target": "Cytochrome P450 3A4 (Homo sapiens, UniProt P08684)", "sequence (P08684 whole entry)": "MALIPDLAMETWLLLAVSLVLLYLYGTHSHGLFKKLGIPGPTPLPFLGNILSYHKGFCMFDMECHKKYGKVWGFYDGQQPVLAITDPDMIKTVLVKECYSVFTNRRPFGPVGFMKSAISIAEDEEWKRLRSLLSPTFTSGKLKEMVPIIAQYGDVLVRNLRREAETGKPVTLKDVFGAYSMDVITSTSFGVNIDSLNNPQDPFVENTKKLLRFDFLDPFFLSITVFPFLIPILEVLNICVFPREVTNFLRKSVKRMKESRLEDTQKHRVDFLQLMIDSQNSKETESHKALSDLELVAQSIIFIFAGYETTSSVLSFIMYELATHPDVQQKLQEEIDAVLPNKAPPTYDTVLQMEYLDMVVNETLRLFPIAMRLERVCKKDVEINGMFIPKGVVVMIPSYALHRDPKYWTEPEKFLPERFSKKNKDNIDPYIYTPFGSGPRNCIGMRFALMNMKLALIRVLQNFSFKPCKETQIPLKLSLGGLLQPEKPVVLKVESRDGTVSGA", "test": "Inhibition of human hepatic CYP3A4"}, "[10]": {"test": "in vitro", "settings": "human, Caco-2", "description": "Apparent permeability across human Caco-2 cells at 50 uM"}, "[11]": {"test": "in vitro", "settings": "Sprague-Dawley, rat, liver microsomes"}, "[12]": {"test": "in vitro", "settings": "Sprague-Dawley, rat, liver microsomes", "remark": "listed apart in the source"}, "[13]": {"biological_target": "T5, 17-beta-hydroxysteroid dehydrogenase type 1 (Homo sapiens) (UniProt P14061)", "T5 sequence (whole entry)": "T1 sequence (P14061 whole entry)", "test": "as §1"}, "[14]": {"biological_target": "T6, 17-beta-hydroxysteroid dehydrogenase type 2 (Homo sapiens, UniProt P37059)", "T6 sequence (P37059 whole entry)": "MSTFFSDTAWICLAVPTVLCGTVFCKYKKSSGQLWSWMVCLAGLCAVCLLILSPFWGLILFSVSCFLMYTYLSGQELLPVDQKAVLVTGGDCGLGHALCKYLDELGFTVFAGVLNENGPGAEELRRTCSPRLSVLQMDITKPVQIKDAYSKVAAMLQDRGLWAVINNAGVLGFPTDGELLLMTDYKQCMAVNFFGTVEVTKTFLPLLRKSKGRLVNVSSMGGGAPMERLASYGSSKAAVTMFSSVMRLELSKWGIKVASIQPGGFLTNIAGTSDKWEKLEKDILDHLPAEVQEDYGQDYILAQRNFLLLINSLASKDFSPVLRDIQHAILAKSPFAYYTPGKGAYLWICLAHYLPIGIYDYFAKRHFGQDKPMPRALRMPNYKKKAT", "test": "Inhibition of human placental microsomal 17beta-HSD2"}, "[15]": {"biological_target": "Cytochrome P450 2C9 (Homo sapiens, UniProt P11712)", "sequence (P11712 whole entry)": "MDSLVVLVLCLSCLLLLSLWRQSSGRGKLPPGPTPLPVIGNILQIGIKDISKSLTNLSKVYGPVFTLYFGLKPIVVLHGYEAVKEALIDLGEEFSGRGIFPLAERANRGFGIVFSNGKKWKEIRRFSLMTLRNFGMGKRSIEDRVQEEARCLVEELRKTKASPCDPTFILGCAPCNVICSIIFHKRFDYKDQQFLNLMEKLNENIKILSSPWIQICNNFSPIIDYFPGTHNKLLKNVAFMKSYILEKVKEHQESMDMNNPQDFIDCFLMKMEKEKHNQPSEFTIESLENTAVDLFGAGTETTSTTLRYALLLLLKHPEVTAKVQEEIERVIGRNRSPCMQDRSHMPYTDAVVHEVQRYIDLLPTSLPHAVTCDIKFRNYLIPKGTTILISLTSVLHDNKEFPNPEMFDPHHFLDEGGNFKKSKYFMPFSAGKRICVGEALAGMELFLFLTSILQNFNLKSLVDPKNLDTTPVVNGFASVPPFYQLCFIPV", "test": "Inhibition of human hepatic CYP2C9", "assay_type": "ADME"}}, "note": "Calls of active or inactive are those of the source. The rule behind the calls is not given here."}
{"smiles": "Oc1ccc(-c2csc(-c3cccc(O)c3)n2)cc1", "values": [{"measurement": "IC50", "setting": "[1]", "value": "> 1", "unit": "µM"}]}
{"smiles": "Oc1cccc(-c2csc(-c3cccc(O)c3)n2)c1", "values": [{"measurement": "IC50", "setting": "[1]", "value": 0.455, "unit": "µM"}]}
{"smiles": "Oc1ccc(-c2cc(-c3cccc(O)c3)cs2)cc1", "values": [{"measurement": "IC50", "setting": "[1]", "value": 0.151, "unit": "µM"}, {"measurement": "RBA", "setting": "[2]", "value": 0.01, "unit": "%"}, {"measurement": "RBA", "setting": "[3]", "value": 0.1, "unit": "%"}, {"measurement": "Activity", "setting": "[4]", "value": "inactive"}, {"measurement": "IC50", "setting": "[5]", "value": "> 4", "unit": "µM"}, {"measurement": "IC50", "setting": "[6]", "value": "> 4", "unit": "µM"}, {"measurement": "IC50", "setting": "[7]", "value": "> 4", "unit": "µM"}, {"measurement": "IC50", "setting": "[8]", "value": "> 4", "unit": "µM"}, {"measurement": "IC50", "setting": "[9]", "value": 1.9, "unit": "µM"}, {"measurement": "Papp at 50 µM", "setting": "[10]", "value": 14.4, "unit": "×10⁻⁶ cm/s"}, {"measurement": "half-life at 1 µM", "setting": "[11]", "value": 18.6, "unit": "min"}, {"measurement": "microsomal CLint at 1 µM", "setting": "[12]", "value": 248, "unit": "µL/min/mg"}]}
{"smiles": "Oc1cccc(-c2ccc(-c3cccc(O)c3)nc2)c1", "values": [{"measurement": "RBA", "setting": "[2]", "value": 0.01, "unit": "%"}, {"measurement": "RBA", "setting": "[3]", "value": "< 0.01", "unit": "%"}]}
{"smiles": "Oc1ccc(-c2ccc(-c3ccc(O)cc3)s2)cc1", "values": [{"measurement": "Activity", "setting": "[13]", "value": "inactive"}]}
{"smiles": "Oc1ccc(-c2ccc(-c3cccc(O)c3)cc2)cc1", "values": [{"measurement": "IC50", "setting": "[1]", "value": 0.471, "unit": "µM"}, {"measurement": "Activity", "setting": "[4]", "value": "inactive"}]}
{"smiles": "Oc1cccc(-c2nnc(-c3cccc(O)c3)s2)c1", "values": [{"measurement": "IC50", "setting": "[1]", "value": 0.336, "unit": "µM"}]}
{"smiles": "Oc1ccc(-c2csc(-c3ccc(O)cc3)n2)cc1", "values": [{"measurement": "Activity", "setting": "[13]", "value": "inactive"}]}
{"smiles": "Oc1ccc(-c2csc(-c3ccc(O)cc3)c2)cc1", "values": [{"measurement": "Activity", "setting": "[13]", "value": "inactive"}]}
{"smiles": "Oc1ccc(-c2ccc(-c3cccc(O)c3)s2)cc1", "values": [{"measurement": "IC50", "setting": "[1]", "value": 0.069, "unit": "µM"}, {"measurement": "Activity", "setting": "[4]", "value": "inactive"}, {"measurement": "Papp at 50 µM", "setting": "[10]", "value": 22, "unit": "×10⁻⁶ cm/s"}]}
{"smiles": "Oc1ccc(-c2nsc(-c3cccc(O)c3)n2)cc1", "values": [{"measurement": "IC50", "setting": "[1]", "value": 0.413, "unit": "µM"}, {"measurement": "Activity", "setting": "[4]", "value": "inactive"}]}
{"smiles": "Cn1nc(-c2ccc(O)cc2)nc1-c1ccc(O)cc1", "values": [{"measurement": "Activity", "setting": "[13]", "value": "inactive"}]}
{"smiles": "Oc1cccc(-c2ccc(-c3cccc(O)c3)s2)c1", "values": [{"measurement": "IC50", "setting": "[1]", "value": 0.173, "unit": "µM"}]}
{"smiles": "Oc1cccc(-c2ccc(-c3cccc(O)c3)cc2)c1", "values": [{"measurement": "IC50", "setting": "[1]", "value": 0.173, "unit": "µM"}, {"measurement": "IC50", "setting": "[14]", "value": 2.26, "unit": "µM"}, {"measurement": "RBA", "setting": "[2]", "value": "< 0.001", "unit": "%"}, {"measurement": "RBA", "setting": "[3]", "value": 0.01, "unit": "%"}, {"measurement": "Activity", "setting": "[4]", "value": "inactive"}, {"measurement": "IC50", "setting": "[5]", "value": "> 4", "unit": "µM"}, {"measurement": "IC50", "setting": "[6]", "value": "> 4", "unit": "µM"}, {"measurement": "IC50", "setting": "[7]", "value": "> 4", "unit": "µM"}, {"measurement": "IC50", "setting": "[8]", "value": "> 4", "unit": "µM"}, {"measurement": "IC50", "setting": "[15]", "value": 1.9, "unit": "µM"}, {"measurement": "IC50", "setting": "[9]", "value": 2.1, "unit": "µM"}, {"measurement": "Papp at 50 µM", "setting": "[10]", "value": 12.5, "unit": "×10⁻⁶ cm/s"}, {"measurement": "half-life at 1 µM", "setting": "[11]", "value": 22.7, "unit": "min"}, {"measurement": "microsomal CLint at 1 µM", "setting": "[12]", "value": 203, "unit": "µL/min/mg"}]}
{"smiles": "c1ccc(-c2ccc(-c3ccccc3)s2)cc1", "values": [{"measurement": "Activity", "setting": "[13]", "value": "inactive"}]}
{"smiles": "Oc1ccc(-c2ccc(-c3ccc(O)cc3)[se]2)cc1", "values": [{"measurement": "Activity", "setting": "[13]", "value": "inactive"}]}
{"smiles": "Oc1cccc(-c2cccs2)c1", "values": [{"measurement": "Activity", "setting": "[13]", "value": "inactive"}]}
{"smiles": "Oc1cccc(-c2csc(-c3cccc(O)c3)c2)c1", "values": [{"measurement": "IC50", "setting": "[1]", "value": 0.185, "unit": "µM"}]}
{"smiles": "Oc1cccc(-c2ccc(-c3cccc(O)c3)[se]2)c1", "values": [{"measurement": "Activity", "setting": "[13]", "value": "inactive"}]}
